The source of these data is patent US20260200926A1, “TREM2 MODULATORS” (Muna Therapeutics ApS, priority 2022, published 2026).

The target in the test is T1, Human TREM2 (Homo sapiens, UniProt Q9NZC2).
T1 construct: expressed in transfected cells
The test is described as follows: Human TREM2 activity: cellular phosphorylation of Syk (AlphaLISA SureFire Ultra p-SYK) in HEK293/DAP12+TREM2 stable cell line. The format is cell-based. Conditions: for Emax: HEK293, read-out: Emax; for EC50: phospho-Syk AlphaLISA signal, HEK293/DAP12+TREM2 cells, concentration giving 50% of maximal response, read-out: EC50. An excerpt:
Human TREM2, in vitro Measurement of Triggering Receptor Expressed on Myeloid Cells 2 activity using cellular phosphorylation of Spleen Tyrosine Kinase (“Syk”) Assay
HEK-293 cells were co-transfected with separate plasmids encoding TREM2 and DAP12 to generate a stable cell line. After antibiotic selection, functional clone pool analysis and two successive limiting dilutions, the final clone “HEK293/DAP12+TREM2” underwent a qPCR analysis and a pharmacological validation.
TREM2 signaling through DAP12 was monitored in the HEK293/DAP12+TREM2 stable cell line by measuring the phosphorylation levels of the Syk kinase using the commercially available AlphaLISA SureFire Ultra p-SYK (Tyr525/526) Assay Kit (PerkinElmer #ALSU-PSYK), based on the Perkin Elmer AlphaScreen/AlphaLISA technology.
Compounds are transferred to the test plate and tested in full dose response, 8 concentrations in quadruplicate data points. Compound serial dilutions were performed at Cybi-Felix instrument in 100% DMSO and the dose response curves were assembled in automated fashion in 384MPT at Hamilton STARlet instrument. All the stock solutions were prepared at 20 mM in 100% DMSO. For compounds testing, the starting concentration was 100 μM, dilution steps 1:6. […] Finally, a 384MPT reformatted for all compounds at 8 concentrations, quadruplicates, was used as “mother to child” process with a CyBi®-Well dispenser in which 1 μL of each compound was moved into a destination plate pre-filled with 65.6 μL of EMEM cell culture medium (BIOWHITTAKER_cat.BE12-125F), thus obtaining 3× concentrated compounds working solution. In columns 1-2 and 23-24 the control wells were added. In particular, dose response curves of a reference control agonist were included in column 1 and 24 as reference control agonist (Reference control agonists used include Human TREM2 polyclonal Antibody AF1828: R&D Systems; Human TREM2 monoclonal Antibody MAB1828: R&D Systems). The dose response curves were tested starting at 30 μM, dilution step 1:6. Both “source” compound plate and “destination” compound plate were barcoded and a relationship between the two plates was thus generated.
HEK293/DAP12+TREM2 cells were cultured in EMEM medium supplemented with IX Penicillin/Streptomycin (BIOWHITTAKER_cat.DE17-602E), ULTRAGLUTAMINE I 200 mM, 10% Fetal Bovine Serum plus antibiotics referred to as “HEK293 Culture Medium”. The day before the experiment, cells were detached by gentle wash with DPBS, followed by 5 min incubation at 37° C. with Trypsin solution. Cells were then diluted in HEK293 Culture Medium without antibiotics, counted and seeded into 384-well poly-D-Lysine coated microplates black/clear bottom (GREINER 781946) at a density of 10,000 cells/well in 25 μL/well by the use of a MATRIX WellMate dispenser. Plates were placed into a humidified cell culture incubator at 37° C. with 5% CO2 until the experimental day. 20-24 hours after seeding mature medium was removed and replaced with 10 μL/well of EMEM cell medium supplemented with 0.1% Pluronic F-68 non-ionic surfactant (Thermofisher, 24040032), referred to as “Assay Buffer”, using the CyBi®-Well instrument. Then 5 μL/well of Assay Buffer containing 3× concentrated test compounds or the reference control agonist (in 0.5% final DMSO concentration) were added to the cells with the CyBi®-Well instrument. Cell plates were incubated for 30 min into a humidified cell culture incubator at 37° C. with 5% CO2·, then the medium was removed by manually discard. 20 μL/well of lysis buffer were dispensed using the CyBi®-Well instrument and plates were incubated for 10 min at room temperature on a plate shaker (350 rpm). Then, 10 μL/well of lysate were transferred to the Alpha plates. The CyBi®-Well instrument was used to dispense 5 μL/well of AlphaLISA Acceptor Bead Solution in IX Immunoassay buffer (Perkin Elmer AL000F). Then the plates were sealed with Heat sealing foil, shaked for 2 minutes (350 rpm) and incubated for 1 hour at room temperature.
For orientation: In Alpha technology, singlet oxygen from a donor bead excites a nearby acceptor bead.

[1] abbreviates: maximal response relative to reference agonist example 1B (remaining examples).

Where two headings read alike, the source gives them in different places. A value given as a limit tells only on which side of the number the result lay.

T1 sequence (Q9NZC2 19-230): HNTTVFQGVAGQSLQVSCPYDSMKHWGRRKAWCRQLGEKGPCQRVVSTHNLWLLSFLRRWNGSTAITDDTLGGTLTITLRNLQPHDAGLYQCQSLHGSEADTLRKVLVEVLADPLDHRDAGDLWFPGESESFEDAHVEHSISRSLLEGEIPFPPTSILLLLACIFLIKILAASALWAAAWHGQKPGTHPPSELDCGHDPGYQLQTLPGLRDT
T1 sequence (O43914 22-113 partner): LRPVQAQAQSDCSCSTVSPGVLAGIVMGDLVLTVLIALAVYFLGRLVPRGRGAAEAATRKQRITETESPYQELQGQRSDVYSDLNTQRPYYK

As for `Cc1cc([C@H]2CN(c3nc(-c4cc(F)c(F)cc4F)c4nc(C)n(C)c(=O)c4n3)CCO2)ccn1` (single isomer, unassigned) [Example 123B], the half-maximal effective concentration (EC50) (as a rule, the concentration giving half of the maximal effect) was in the range of 10 to 100 nM. Under setting [1], the Emax – broadly, the greatest response seen or fitted, relative to the assay's reference – lay within 75 to 110%.
As for `Cn1cc([C@@H]2CN(c3nc(-c4cc(F)c(F)cc4F)c4nc(C(F)(F)F)n(C)c(=O)c4n3)CC3(CC3)O2)cn1` (single isomer, unassigned) [Example 162A], the concentration for a half-maximal effect (EC50) was in the range of 1 to 10 nM. The Emax under setting [1] was 75 to 110%.
Turning to `Cc1cc([C@H]2CN(c3nc(-c4ccc(F)cc4F)c4nc(C(F)(F)F)n(C)c(=O)c4n3)CCO2)ccn1` (single isomer, unassigned) [Example 154B], the half-maximal effective concentration (EC50) was 10 to 100 nM. Further, the Emax under setting [1] was 75 to 110%.
The matching figures for `Cc1nc2c(-c3ccc(Cl)cc3F)cc(N3C[C@H](c4cnn(C)c4)OC(C)(C)C3)cc2c(=O)n1C` (single isomer, unassigned) [Example 117B]: 100 to 1000 nM and less than 75%.
The matching figures for `Cc1nc2c(-c3ccc(Cl)cc3F)nc(N3CCOC(c4cnn(C5CC5)c4)C3)nc2c(=O)n1C` (centres unmarked) [Example 2, 8-(4-chloro-2-fluorophenyl)-6-(2-(1-cyclopropyl-1H-pyrazol-4-yl)morpholino)-2,3-dimethylpyrimido[5,4-d]pyrimidin-4 (3H)-one]: 1 to 10 nM and 75 to 110%.
For `Cc1nc2c(-c3ccc(C(F)(F)F)cc3C#N)nc(N3C[C@@H](C)O[C@@H](c4cnn(C5CC5)c4)C3)cc2c(=O)n1C` (single isomer, unassigned) [Example 202B], the EC50 was greater than 1000 nM. Under setting [1], the Emax was less than 75%.
The matching figures for `Cc1nc2c(-c3ccc(Cl)cc3F)nc(N3CCn4nc(C(F)(F)F)nc4C3)nc2c(=O)n1C` [Example 188, 8-(4-chloro-2-fluorophenyl)-2,3-dimethyl-6-(2-(trifluoromethyl)-5,6-dihydro-[1,2,4]triazolo[1,5-a]pyrazin-7 (8H)-yl)pyrimido[5,4-d]pyrimidin-4 (3H)-one]: 10 to 100 nM and less than 75%.
As to `Cc1cc([C@H]2CN(c3cc4c(=O)n(C)c(C(F)(F)F)nc4c(-c4ccc(F)cc4F)n3)C[C@@H](C)O2)ccn1` (single isomer, unassigned) [Example 189B], the EC50 was 100 to 1000 nM. Further, under setting [1], the Emax fell in the range of 75 to 110%.
For the compound `Cc1nc2c(-c3cc(F)c(F)cc3F)nc(N3CCO[C@@H](c4cnn(C)c4)C3)nc2c(=O)n1C` (single isomer, unassigned) [Example 27B], the EC50 lay in the range of 10 to 100 nM. Further, the Emax under setting [1] fell in the range of 75 to 110%.
The corresponding values for `Cc1cc([C@H]2CN(c3cc4c(=O)n(C)c(C)nc4c(-c4ccc(C(F)F)nc4)n3)CC(C)(C)O2)ccn1` (single isomer, unassigned) [Example 180B] are 10 to 100 nM and less than 75%.
With `Cc1nc2c(-c3ccc(Cl)cc3F)nc(N3CCOC(c4cnn(C)c4)C3)nc2c(=O)n1C` (centres unmarked) [Example 1, 8-(4-chloro-2-fluorophenyl)-2,3-dimethyl-6-(2-(1-methyl-1H-pyrazol-4-yl)morpholino)pyrimido[5,4-d]pyrimidin-4 (3H)-one], the EC50 fell in the range of 10 to 100 nM. Where the note is “maximal response relative to reference agonist human TREM2 MAB1828 (examples 1, 1A and 1B)”, the maximal response (Emax) is 75 to 110%.
As for `Cc1nc2c(-c3ccc(Cl)cc3F)nc(N3CCOC(c4ccnn4C)C3)nc2c(=O)n1C` (centres unmarked) [Example 44, 8-(4-chloro-2-fluorophenyl)-2,3-dimethyl-6-(2-(1-methyl-1H-pyrazol-5-yl)morpholino)pyrimido[5,4-d]pyrimidin-4(3H)-one], the 50% effective concentration (EC50) was 100 to 1000 nM. Further, the maximum response (Emax) under setting [1] lay within 75 to 110%.
The matching figures for `Cc1cc([C@@H]2CN(c3nc(-c4ccc(Cl)cc4F)c4nc(C)n(C)c(=O)c4n3)C[C@H](C)O2)ccn1` (single isomer, unassigned) [Example 176A]: less than 1 nM and 75 to 110%.
With `Cc1nc2c(-c3ccc(C(F)(F)F)nc3)nc([C@@H]3CCO[C@H](c4cnn(C)c4)C3)nc2c(=O)n1C` (single isomer, unassigned) [Example 88A], the EC50 is greater than 1000 nM. Under setting [1], the Emax was less than 75%.
The corresponding values for `Cc1nc2c(-c3ccc(C(F)(F)F)nc3)nc(N3CCOC(c4cnn(C)c4)C3)nc2c(=O)n1C` (centres unmarked) [Example 4, 2,3-dimethyl-6-(2-(1-methyl-1H-pyrazol-4-yl)morpholino)-8-(6-(trifluoromethyl)pyridin-3-yl)pyrimido[5,4-d]pyrimidin-4(3H)-one] are 100 to 1000 nM and 75 to 110%.
The corresponding values for `Cc1cc([C@H]2CN(c3cc4c(=O)n(C)c(C)nc4c(-c4ccc(C(F)(F)F)nc4)n3)CCO2)ccn1` (single isomer, unassigned) [Example 138B] are 100 to 1000 nM and less than 75%.
Consider `Cc1cc([C@H]2CN(c3cc4c(=O)n(C)c(C)nc4c(-c4ccc(F)cc4F)n3)CCO2)ccn1` (single isomer, unassigned) [Example 136B], for which the EC50 is 100 to 1000 nM. Also, the Emax under setting [1] is less than 75%.
The corresponding values for `Cc1nc2c(C3CCC(F)(F)CC3)nc(N3CCOC(c4cnn(C)c4)C3)nc2c(=O)n1C` (centres unmarked) [Example 11, 8-(4,4-difluorocyclohexyl)-2,3-dimethyl-6-(2-(1-methyl-1H-pyrazol-4-yl)morpholino)pyrimido[5,4-d]pyrimidin-4 (3H)-one] are 100 to 1000 nM and 75 to 110%.
The matching figures for `Cc1cc([C@H]2CN(c3nc(-c4ccc(Cl)cc4F)c4nc(C)n(C)c(=O)c4n3)CCO2)ccn1` (single isomer, unassigned) [Example 23B]: 1 to 10 nM and 75 to 110%.
The corresponding values for `COCCN1CCN(c2nc(-c3ccc(Cl)cc3F)c3nc(C)n(C)c(=O)c3n2)CC1c1cnn(C)c1` (centres unmarked) [Example 34, 8-(4-chloro-2-fluorophenyl)-6-(4-(2-methoxyethyl)-3-(1-methyl-1H-pyrazol-4-yl)piperazin-1-yl)-2,3-dimethylpyrimido[5,4-d]pyrimidin-4(3H)-one] are 100 to 1000 nM and less than 75%.
As for `Cc1cc([C@H]2CN(c3nc(-c4ccc(F)cc4F)c4nc(C(F)(F)F)n(C)c(=O)c4n3)C[C@@H](C)O2)ccn1` (single isomer, unassigned) [Example 191B], the half-maximal effective concentration (EC50) fell in the range of 1 to 10 nM. In addition, the Emax under setting [1] was in the range of 75 to 110%.
The matching figures for `Cc1nc2c(-c3ccc(Cl)cc3F)nc(N3CCc4cncnc4CC3)nc2c(=O)n1C` [Example 83, 8-(4-chloro-2-fluorophenyl)-2,3-dimethyl-6-(5,6,8,9-tetrahydro-7H-pyrimido[4,5-d]azepin-7-yl)pyrimido[5,4-d]pyrimidin-4(3H)-one]: greater than 1000 nM and less than 75%.
The corresponding values for `Cc1cc([C@H]2CN(c3cc4c(=O)n(C)c(C)nc4c(-c4cc(F)c(F)cc4F)n3)CC(C)(C)O2)ccn1` (single isomer, unassigned) [Example 160B] are 100 to 1000 nM and less than 75%.
The corresponding values for `Cc1nc2c(-c3ccc(Cl)cc3F)nc(N3CC[C@@H](Oc4cnn(C)c4)C3)nc2c(=O)n1C` [Example 64, (R)-8-(4-chloro-2-fluorophenyl)-2,3-dimethyl-6-(3-((1-methyl-1H-pyrazol-4-yl)oxy)pyrrolidin-1-yl)pyrimido[5,4-d]pyrimidin-4 (3H)-one] are 10 to 100 nM and less than 75%.
As for `Cc1cc([C@@H]2CN(c3nc(-c4ccc(Cl)cc4F)c4nc(C)n(C)c(=O)c4n3)CCO2)ccn1` (single isomer, unassigned) [Example 23A], the 50% effective concentration (EC50) was 10 to 100 nM. In addition, the maximal effect (Emax) under setting [1] was less than 75%.
